Results as given in ChEMBL document CHEMBL5375999, “Discovery of a Dual Tubulin and Neuropilin-1 (NRP1) Inhibitor with Potent In Vivo Anti-Tumor Activity via Pharmacophore-based Docking Screening, Structure Optimization, and Biological Evaluation” (J Med Chem, 2023).
Calls of active or inactive are those of the source. The rule behind the calls is not given here.

Columns and labels:
Focal adhesion kinase 1 = Focal adhesion kinase 1 (Homo sapiens, UniProt Q05397); assay: Inhibition of FAK (unknown origin)
Focal adhesion kinase 1, sequence (Q05397 whole entry): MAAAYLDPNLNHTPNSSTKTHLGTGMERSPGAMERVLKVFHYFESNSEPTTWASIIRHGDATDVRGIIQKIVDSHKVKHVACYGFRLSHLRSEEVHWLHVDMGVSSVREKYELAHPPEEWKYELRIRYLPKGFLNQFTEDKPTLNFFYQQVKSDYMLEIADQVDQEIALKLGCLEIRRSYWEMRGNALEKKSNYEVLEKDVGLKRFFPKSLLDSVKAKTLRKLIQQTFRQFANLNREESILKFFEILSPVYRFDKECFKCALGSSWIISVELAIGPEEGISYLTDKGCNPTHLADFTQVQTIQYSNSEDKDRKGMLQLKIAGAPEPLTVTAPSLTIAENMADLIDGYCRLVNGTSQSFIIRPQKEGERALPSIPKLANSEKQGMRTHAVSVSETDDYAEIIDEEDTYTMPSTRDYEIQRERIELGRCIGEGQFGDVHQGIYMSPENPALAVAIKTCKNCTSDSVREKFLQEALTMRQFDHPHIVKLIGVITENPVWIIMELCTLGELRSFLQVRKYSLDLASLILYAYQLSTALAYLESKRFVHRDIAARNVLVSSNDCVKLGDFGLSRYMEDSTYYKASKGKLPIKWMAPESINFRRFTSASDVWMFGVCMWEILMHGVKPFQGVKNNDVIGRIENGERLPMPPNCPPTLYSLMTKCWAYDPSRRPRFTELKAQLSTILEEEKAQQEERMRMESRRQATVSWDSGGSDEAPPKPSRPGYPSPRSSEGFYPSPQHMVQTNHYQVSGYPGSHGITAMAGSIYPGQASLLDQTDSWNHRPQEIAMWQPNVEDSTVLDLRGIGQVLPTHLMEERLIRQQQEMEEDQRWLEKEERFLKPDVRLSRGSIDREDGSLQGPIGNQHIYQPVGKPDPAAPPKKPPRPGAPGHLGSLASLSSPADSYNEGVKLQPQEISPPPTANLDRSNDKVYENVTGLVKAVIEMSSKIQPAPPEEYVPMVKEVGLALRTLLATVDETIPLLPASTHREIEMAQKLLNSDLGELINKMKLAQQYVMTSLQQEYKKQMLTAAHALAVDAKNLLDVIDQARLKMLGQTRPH

Tubulin (Homo sapiens) = Tubulin (Homo sapiens) (UniProt P68371+Q9H4B7+P0DPH7+P68366+Q13509+Q71U36+P04350+Q3ZCM7+P07437+P68363+Q9BQE3+Q6PEY2+Q13885+Q9BVA1+Q9BUF5); assay: Inhibition of tubulin polymerization (unknown origin) at 12 uM by spectrophotometric analysis relative to control; format: protein-complex assay
[1] = target: T1, Vascular endothelial growth factor receptor 2 (Homo sapiens, UniProt P35968); assay: Inhibition of VEGF-induced VEGFR2 signal pathway in HUVECs assessed as reduction in p-VEGFR2 level; format: cell-based; conditions: HUVEC, dose 0.1-12.5 µM
T1 sequence (P35968 whole entry): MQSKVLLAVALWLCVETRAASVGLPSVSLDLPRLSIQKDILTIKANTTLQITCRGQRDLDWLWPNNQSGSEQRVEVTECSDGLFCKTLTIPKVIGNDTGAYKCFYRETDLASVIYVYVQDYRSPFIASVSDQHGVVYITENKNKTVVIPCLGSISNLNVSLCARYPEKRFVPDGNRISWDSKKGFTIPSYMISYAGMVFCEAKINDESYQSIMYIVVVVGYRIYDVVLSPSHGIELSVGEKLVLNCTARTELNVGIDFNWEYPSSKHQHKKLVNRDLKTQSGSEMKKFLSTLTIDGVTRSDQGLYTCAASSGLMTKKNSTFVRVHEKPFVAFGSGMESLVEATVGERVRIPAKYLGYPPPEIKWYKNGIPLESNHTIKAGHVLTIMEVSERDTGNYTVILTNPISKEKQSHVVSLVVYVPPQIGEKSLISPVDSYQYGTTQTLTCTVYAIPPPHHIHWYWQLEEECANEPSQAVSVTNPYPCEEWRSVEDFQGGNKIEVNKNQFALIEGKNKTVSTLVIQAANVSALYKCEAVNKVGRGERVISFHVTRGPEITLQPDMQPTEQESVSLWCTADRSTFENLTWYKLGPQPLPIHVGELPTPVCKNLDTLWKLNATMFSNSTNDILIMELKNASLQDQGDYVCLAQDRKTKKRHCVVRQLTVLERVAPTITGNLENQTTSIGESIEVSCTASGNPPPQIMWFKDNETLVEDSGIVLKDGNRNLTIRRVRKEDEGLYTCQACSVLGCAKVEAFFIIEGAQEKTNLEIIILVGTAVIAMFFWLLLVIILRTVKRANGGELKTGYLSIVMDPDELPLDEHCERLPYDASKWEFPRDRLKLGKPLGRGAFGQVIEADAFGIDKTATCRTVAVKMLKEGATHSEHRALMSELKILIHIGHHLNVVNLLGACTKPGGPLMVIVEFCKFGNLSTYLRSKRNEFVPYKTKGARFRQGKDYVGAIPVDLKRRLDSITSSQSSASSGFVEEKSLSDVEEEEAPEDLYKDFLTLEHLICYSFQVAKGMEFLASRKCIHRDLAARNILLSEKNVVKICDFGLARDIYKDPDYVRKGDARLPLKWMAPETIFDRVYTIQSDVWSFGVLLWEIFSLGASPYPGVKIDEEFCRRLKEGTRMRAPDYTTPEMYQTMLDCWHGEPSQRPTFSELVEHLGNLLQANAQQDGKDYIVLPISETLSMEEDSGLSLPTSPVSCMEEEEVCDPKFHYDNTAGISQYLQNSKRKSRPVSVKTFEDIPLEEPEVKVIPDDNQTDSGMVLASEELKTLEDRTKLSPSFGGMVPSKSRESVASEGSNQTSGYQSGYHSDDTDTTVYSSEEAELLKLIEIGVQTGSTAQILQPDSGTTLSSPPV

PC-3 [2] = assay: Induction of apoptosis in human PC-3 cells assessed as necrotic cells at 2.5 uM by Annexin-V FITC staining based flow cytometry analysis (reference value: 0.059%); format: functional
[3] = target: T1, Vascular endothelial growth factor receptor 2; assay: Inhibition of VEGF-induced VEGFR2 signal pathway in HUVECs assessed as reduction in p-VEGFR2 level at 12.5 uM relative to control; format: cell-based; conditions: HUVEC
CWR22R = assay: Cytotoxicity against human 22Rv1 cells assessed as inhibition of cell viability incubated for 48 hrs by MTT assay; format: functional, cell-based
[4] = target: Cyclin-dependent kinase 7 (Homo sapiens, UniProt P50613); assay: Inhibition of CDK7 (unknown origin)
Cyclin-dependent kinase 7, sequence (P50613 whole entry): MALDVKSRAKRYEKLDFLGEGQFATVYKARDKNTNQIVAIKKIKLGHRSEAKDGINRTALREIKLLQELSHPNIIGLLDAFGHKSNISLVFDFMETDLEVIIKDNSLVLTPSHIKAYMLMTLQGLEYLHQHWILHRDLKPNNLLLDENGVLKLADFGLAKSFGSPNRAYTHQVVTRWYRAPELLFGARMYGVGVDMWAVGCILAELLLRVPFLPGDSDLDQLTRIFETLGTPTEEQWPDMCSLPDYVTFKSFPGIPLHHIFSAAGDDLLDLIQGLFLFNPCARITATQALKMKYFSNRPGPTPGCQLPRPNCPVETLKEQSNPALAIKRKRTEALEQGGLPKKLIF

PC-3M-1E8 = assay: Cytotoxicity against human PC-3M-1E8 cells assessed as inhibition of cell viability incubated for 48 hrs by MTT assay; format: functional, cell-based
PC-3 [5] = assay: Antiangiogenesis activity in human PC-3 cells assessed as reduction in network formation by interconnected cells at 0.1 to 12.5 uM incubated for 8 to 15 hrs by matrigel based inverted microscopic analysis; format: functional, cell-based; conditions: dose 0.1-12.5 µM, time 8-15 hrs
[6] = target: RAC-beta serine/threonine-protein kinase (Homo sapiens, UniProt P31751); assay: Inhibition of AKT2 (unknown origin)
PC-3 [7] = assay: Antiangiogenesis activity in human PC-3 cells assessed as appearance of scattered cells at 0.1 to 12.5 uM incubated for 8 to 15 hrs by matrigel based inverted microscopic analysis; format: functional, cell-based; conditions: dose 0.1-12.5 µM, time 8-15 hrs
Activin receptor type-2A = Activin receptor type-2A (Homo sapiens, UniProt P27037); assay: Inhibition of ACVR2 (unknown origin)
[8] = Toxicity in BALB/c mouse xenografted with human PC-3 cells assessed as change in liver morphology at 5 to 10 mg/kg, ip administered every 4 days for 20 days by H and E staining based inverted microscopic assay; format: organism-based; conditions: in vivo, 480 h, dose 5-10 mg/kg, time 20 day
[9] = target: Serine/threonine-protein kinase B-raf (Homo sapiens, UniProt P15056); assay: Inhibition of BRAF (unknown origin)
[10] = target: Serine/threonine-protein kinase PLK1 (Homo sapiens, UniProt P53350); assay: Inhibition of PLK1 (unknown origin)
CDK6/cyclin D3 = CDK6/cyclin D3 (Homo sapiens, UniProt Q00534); assay: Inhibition of CDK6/Cyclin D3 (unknown origin); format: protein-complex assay
CDK6/cyclin D3, sequence (P30281 whole entry): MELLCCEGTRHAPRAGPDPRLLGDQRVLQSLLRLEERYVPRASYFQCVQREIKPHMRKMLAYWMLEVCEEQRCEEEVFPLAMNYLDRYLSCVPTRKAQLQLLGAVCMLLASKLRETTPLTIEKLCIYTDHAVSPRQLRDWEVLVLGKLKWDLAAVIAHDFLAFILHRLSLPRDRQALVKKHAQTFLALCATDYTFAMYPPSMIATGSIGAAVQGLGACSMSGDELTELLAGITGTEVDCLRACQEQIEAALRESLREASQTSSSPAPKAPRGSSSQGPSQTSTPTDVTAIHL
CDK6/cyclin D3, sequence (Q00534 whole entry): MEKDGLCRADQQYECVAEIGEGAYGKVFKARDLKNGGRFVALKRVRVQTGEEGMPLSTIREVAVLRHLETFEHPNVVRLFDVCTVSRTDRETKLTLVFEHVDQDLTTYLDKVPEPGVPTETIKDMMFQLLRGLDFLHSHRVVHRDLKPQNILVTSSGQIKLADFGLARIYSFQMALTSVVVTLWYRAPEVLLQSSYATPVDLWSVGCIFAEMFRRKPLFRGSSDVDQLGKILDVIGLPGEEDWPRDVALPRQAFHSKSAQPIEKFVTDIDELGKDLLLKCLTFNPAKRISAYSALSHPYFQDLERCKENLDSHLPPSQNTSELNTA

PC-3 [11] = assay: Induction of cell cycle arrest in human PC-3 cells assessed as S phase cells at 2.5 uM by flow cytometry analysis (reference value: 2%); format: functional
[12] = target: Vascular endothelial growth factor receptor 3 (Homo sapiens, UniProt P35916); assay: Inhibition of VEGFR3 (unknown origin)
[13] = target: RAC-alpha serine/threonine-protein kinase (Homo sapiens, UniProt P31749); assay: Inhibition of AKT1 (unknown origin)
PC-3 [14] = assay: Induction of cell cycle arrest in human PC-3 cells assessed as S phase cells at 0.1 uM by flow cytometry analysis (reference value: 2%); format: functional
PC-3 [15] = assay: Induction of apoptosis in human PC-3 cells assessed as late apoptotic cells at 0.5 uM by Annexin-V FITC staining based flow cytometry analysis (reference value: 1.67%); format: functional
[16] = target: Mitogen-activated protein kinase 3 (Homo sapiens, UniProt P27361); assay: Inhibition of ERK1 (unknown origin)
Mitogen-activated protein kinase 3, sequence (P27361 whole entry): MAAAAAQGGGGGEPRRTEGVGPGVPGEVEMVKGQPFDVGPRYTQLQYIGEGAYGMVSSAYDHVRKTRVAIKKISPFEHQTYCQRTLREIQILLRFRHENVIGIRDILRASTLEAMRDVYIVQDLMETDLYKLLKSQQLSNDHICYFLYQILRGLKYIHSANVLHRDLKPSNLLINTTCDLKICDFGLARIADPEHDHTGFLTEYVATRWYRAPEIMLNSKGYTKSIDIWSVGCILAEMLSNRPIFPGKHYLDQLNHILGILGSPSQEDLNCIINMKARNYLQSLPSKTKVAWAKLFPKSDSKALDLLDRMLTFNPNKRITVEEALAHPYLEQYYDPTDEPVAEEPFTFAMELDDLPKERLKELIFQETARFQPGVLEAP

HUVEC = assay: Antimigratory activity against HUVECs at 0.1 to 12.5 uM incubated for 24 to 48 hrs by wound healing assay; format: functional, cell-based; conditions: Homo sapiens, dose 0.1-12.5 µM, time 24-48 hrs
[17] = target: Ankyrin repeat and protein kinase domain-containing protein 1 (Homo sapiens, UniProt Q8NFD2); assay: Inhibition of ANKK1 (unknown origin)
[18] = target: Phosphatidylinositol 4,5-bisphosphate 3-kinase catalytic subunit alpha isoform (Homo sapiens, UniProt P42336); assay: Inhibition of PIK3CA (unknown origin)
[19] = target: Mitogen-activated protein kinase kinase kinase 20 (Homo sapiens, UniProt Q9NYL2); assay: Inhibition of ZAK (unknown origin)
Mitogen-activated protein kinase kinase kinase 20, sequence (Q9NYL2 whole entry): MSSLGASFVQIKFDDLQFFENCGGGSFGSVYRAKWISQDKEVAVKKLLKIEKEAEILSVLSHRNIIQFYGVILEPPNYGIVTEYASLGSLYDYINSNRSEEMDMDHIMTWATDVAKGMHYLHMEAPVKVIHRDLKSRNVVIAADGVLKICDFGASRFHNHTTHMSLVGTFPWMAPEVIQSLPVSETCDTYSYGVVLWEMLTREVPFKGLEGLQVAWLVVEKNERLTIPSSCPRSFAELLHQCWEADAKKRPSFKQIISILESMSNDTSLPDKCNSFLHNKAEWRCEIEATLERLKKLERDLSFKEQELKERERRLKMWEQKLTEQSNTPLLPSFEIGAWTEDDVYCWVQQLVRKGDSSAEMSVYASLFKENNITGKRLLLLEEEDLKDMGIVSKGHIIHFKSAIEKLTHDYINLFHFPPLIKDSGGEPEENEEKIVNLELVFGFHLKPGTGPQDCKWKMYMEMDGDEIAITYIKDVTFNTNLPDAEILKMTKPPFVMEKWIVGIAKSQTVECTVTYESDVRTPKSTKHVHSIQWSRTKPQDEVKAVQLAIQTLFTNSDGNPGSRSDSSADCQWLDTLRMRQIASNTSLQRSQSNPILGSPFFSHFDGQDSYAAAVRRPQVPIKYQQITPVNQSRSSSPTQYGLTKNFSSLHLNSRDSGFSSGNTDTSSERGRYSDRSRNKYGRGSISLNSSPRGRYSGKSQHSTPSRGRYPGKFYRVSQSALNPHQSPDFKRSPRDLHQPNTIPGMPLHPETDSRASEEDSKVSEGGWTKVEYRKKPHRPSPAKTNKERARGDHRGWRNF

[20] = Toxicity in BALB/c mouse xenografted with human PC-3 cells assessed as change in spleen morphology at 5 to 10 mg/kg, ip administered every 4 days for 20 days by H and E staining based inverted microscopic assay; format: organism-based; conditions: in vivo, 480 h, dose 5-10 mg/kg, time 20 day
[21] = Toxicity in BALB/c mouse xenografted with human PC-3 cells assessed as change in kidney morphology at 5 to 10 mg/kg, ip administered every 4 days for 20 days by H and E staining based inverted microscopic assay; format: organism-based; conditions: in vivo, 480 h, dose 5-10 mg/kg, time 20 day
[22] = Half life in Sprague-Dawley rat at 1.5 mg/kg, po measured upto 24 hrs by LC-MS/MS analysis; format: ADME, organism-based; conditions: in vivo
PC-3 [23] = assay: Induction of cell cycle arrest in human PC-3 cells assessed as accumulation of cells at G2/M phase at 2.5 uM by flow cytometry analysis (reference value: 3.24%); format: functional
PC-3 [24] = assay: Induction of apoptosis in human PC-3 cells assessed as viable cells at 12.5 uM by Annexin-V FITC staining based flow cytometry analysis (reference value: 96.8%); format: functional; conditions: read-out: Activity
[25] = target: T1, Vascular endothelial growth factor receptor 2; assay: Inhibition of VEGFR2 (unknown origin)
PC-3 [26] = assay: Induction of cell cycle arrest in human PC-3 cells assessed as S phase cells at 0.5 uM by flow cytometry analysis (reference value: 2%); format: functional
PC-3 [27] = assay: Antitumor activity against human PC-3 cells xenografted in BALB/c nude mouse assessed as tumor disappearance at 10 mg/kg, ip administered every 4 days for 20 days; format: functional, organism-based; conditions: time 20.0 day
[28] = Toxicity in BALB/c mouse xenografted with human PC-3 cells assessed as change body weight at 5 to 10 mg/kg, ip administered every 4 days for 20 days; format: organism-based; conditions: in vivo, 480 h, dose 5-10 mg/kg, time 20 day
[29] = target: Cyclin-dependent kinase 3 (Homo sapiens, UniProt Q00526); assay: Inhibition of CDK3 (unknown origin)
[30] = target: Serine/threonine-protein kinase pim-1 (Homo sapiens, UniProt P11309); assay: Inhibition of PIM1 (unknown origin)
PC-3 [31] = assay: Induction of cell cycle arrest in human PC-3 cells assessed as G0/G1 phase cells at 2.5 uM by flow cytometry analysis (reference value: 94.76%); format: functional
[32] = target: Serine/threonine-protein kinase 4 (Homo sapiens, UniProt Q13043); assay: Inhibition of MST1 (unknown origin)
Serine/threonine-protein kinase 4, sequence (Q13043 whole entry): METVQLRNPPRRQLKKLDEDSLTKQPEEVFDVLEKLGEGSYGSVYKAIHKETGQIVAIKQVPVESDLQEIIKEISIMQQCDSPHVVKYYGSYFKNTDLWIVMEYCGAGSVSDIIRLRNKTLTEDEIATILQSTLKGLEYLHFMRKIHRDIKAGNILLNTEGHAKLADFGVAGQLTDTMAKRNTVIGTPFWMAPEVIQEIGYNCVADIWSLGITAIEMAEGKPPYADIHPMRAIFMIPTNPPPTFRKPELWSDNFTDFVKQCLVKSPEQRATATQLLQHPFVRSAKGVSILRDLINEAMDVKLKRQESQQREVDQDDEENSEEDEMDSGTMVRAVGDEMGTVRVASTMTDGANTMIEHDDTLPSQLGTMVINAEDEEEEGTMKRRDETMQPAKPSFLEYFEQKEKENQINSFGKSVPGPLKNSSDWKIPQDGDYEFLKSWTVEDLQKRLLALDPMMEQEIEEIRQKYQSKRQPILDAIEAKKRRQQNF

[33] = Cytotoxicity against human PrEC cells assessed as inhibition of cell viability incubated for 48 hrs by MTT assay; format: toxicity, cell-based

With `COc1ccc(/C=C\c2cc(OC)c(OC)c(OC)c2)cc1NC(=O)CCC(=O)N[C@@H](CCCNC(=N)N)C(=O)O` the IC50 (Focal adhesion kinase 1) was greater than 10 µM, the inhibition (Tubulin (Homo sapiens)) was 96% and the inhibition [1] was “Dose-Dependent Effect”. The Activity (PC-3 [2]) was 0.16%, the inhibition [3] was 50% and the Activity (CWR22R) was “Active”. For the same molecule, the IC50 [4] was greater than 10 µM, the Activity (PC-3M-1E8) was “Active” and the Activity (PC-3 [5]) was “Active”. The IC50 [6] was greater than 10 µM, the Activity (PC-3 [7]) was “Active” and the IC50 (Activin receptor type-2A) was greater than 10 µM. For the same molecule, the Activity [8] was “Non-Toxic”, the IC50 [9] was greater than 10 µM and the IC50 [10] was greater than 10 µM. It also gave an IC50 (CDK6/cyclin D3) greater than 10 µM, an Activity (PC-3 [11]) of 3.67% and an IC50 [12] greater than 10 µM. It also gave an IC50 [13] greater than 10 µM, an Activity (PC-3 [14]) of 1.95% and an Activity (PC-3 [15]) of 5.32%. For the same molecule, the IC50 [16] was greater than 10 µM, the Activity (HUVEC) was “Active” and the IC50 [17] was greater than 10 µM. The IC50 [18] was greater than 10 µM, the IC50 [19] was greater than 10 µM and the Activity [20] was “Non-Toxic”. The Activity [21] was “Non-Toxic”, the half-life [22] was 13.8 h and the Activity (PC-3 [23]) was 11.58%. The viability at 12.5 µM (PC-3 [24]) was 89.4%, the IC50 [25] was greater than 10 µM and the Activity (PC-3 [26]) was 6.01%. The Activity (PC-3 [27]) was “Active”, the Activity [28] was “Non-Toxic” and the IC50 [29] was greater than 10 µM. It also gave an IC50 [30] greater than 10 µM, an Activity (PC-3 [31]) of 84.75% and an IC50 [32] greater than 10 µM. The IC50 at 48 h [33] was greater than 10 µM.
